Test results from patent EP4745137A1 (Gluetacs Therapeutics (Shanghai) Co., Ltd., priority 2023, dated 2025).
Where two headings read alike, the source gives them in different places.

Assays:
WEE1 = molecular target: T1, WEE1 (Homo sapiens, UniProt P30291+Q96SW2); experiment: Western-blot assay of substrate protein degradation in hPBMCs, WEE1; assay type: cell-based; details: 24 hours of compound treatment
T1 construct: endogenous in cells; host or cells: hPBMCs (Milecell Biotechnologies)

[1] = molecular target: T2, human Cereblon WT GST-tagged protein (Homo sapiens, UniProt Q96SW2); experiment: CRBN-binding affinity by HTRF (CEREBLON BINDING kit)
T2 construct: purchased CISBIO 64BDCRBNPEH

IKZF2 = molecular target: T3, IKZF2 (Homo sapiens, UniProt Q96SW2+Q9UKS7); experiment: Western-blot assay of substrate protein degradation in hPBMCs, IKZF2; assay type: cell-based; details: 24 hours of compound treatment
T3 construct: endogenous in cells; host or cells: hPBMCs (Milecell Biotechnologies)

GSPT1 = molecular target: T4, GSPT1 (Homo sapiens, UniProt P15170+Q96SW2); experiment: Western-blot assay of substrate protein degradation in hPBMCs, GSPT1; assay type: cell-based; details: 24 hours of compound treatment
T4 construct: endogenous in cells; host or cells: hPBMCs (Milecell Biotechnologies)

IKZF1 = molecular target: T5, IKZF1 (Homo sapiens, UniProt Q13422+Q96SW2); experiment: Western-blot assay of substrate protein degradation in hPBMCs, IKZF1; assay type: cell-based; details: 24 hours of compound treatment
T5 construct: endogenous in cells; host or cells: hPBMCs (Milecell Biotechnologies)

IKZF3 = molecular target: T6, IKZF3 (Homo sapiens, UniProt Q96SW2+Q9UKT9); experiment: Western-blot assay of substrate protein degradation in hPBMCs, IKZF3; assay type: cell-based; details: 24 hours of compound treatment
T6 construct: endogenous in cells; host or cells: hPBMCs (Milecell Biotechnologies)

CK1α = molecular target: T7, CK1α (Homo sapiens, UniProt P48729+Q96SW2); experiment: Western-blot assay of substrate protein degradation in hPBMCs, CK1α; assay type: cell-based; details: 24 hours of compound treatment
T7 construct: endogenous in cells; host or cells: hPBMCs (Milecell Biotechnologies)

[2] = compounds tested at 50 nM and 500 nM (concentration of the table not stated)
[3] = HTRF inhibitory activity, CEREBLON BINDING kit, read-out: HTRF IC50
[4] = 50 nM and 500 nM tested (concentration behind the class not stated)

T1 sequence (P30291 whole entry): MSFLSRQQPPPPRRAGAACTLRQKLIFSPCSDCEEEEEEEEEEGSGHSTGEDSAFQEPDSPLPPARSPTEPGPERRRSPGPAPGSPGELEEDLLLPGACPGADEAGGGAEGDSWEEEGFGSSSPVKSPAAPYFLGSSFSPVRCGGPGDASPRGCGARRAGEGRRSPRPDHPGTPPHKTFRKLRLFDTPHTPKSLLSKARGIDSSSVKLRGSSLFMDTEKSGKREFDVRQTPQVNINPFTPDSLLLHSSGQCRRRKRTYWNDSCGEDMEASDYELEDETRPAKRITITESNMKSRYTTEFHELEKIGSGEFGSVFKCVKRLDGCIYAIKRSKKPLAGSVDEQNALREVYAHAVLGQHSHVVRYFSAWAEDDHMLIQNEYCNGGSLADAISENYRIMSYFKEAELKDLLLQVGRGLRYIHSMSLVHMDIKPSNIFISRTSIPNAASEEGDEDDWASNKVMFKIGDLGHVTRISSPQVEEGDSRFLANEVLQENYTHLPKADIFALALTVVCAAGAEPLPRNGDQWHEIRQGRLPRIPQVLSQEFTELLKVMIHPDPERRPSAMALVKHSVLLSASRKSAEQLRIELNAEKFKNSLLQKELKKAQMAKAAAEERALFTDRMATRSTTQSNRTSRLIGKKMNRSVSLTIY
T1 sequence (Q96SW2 whole entry): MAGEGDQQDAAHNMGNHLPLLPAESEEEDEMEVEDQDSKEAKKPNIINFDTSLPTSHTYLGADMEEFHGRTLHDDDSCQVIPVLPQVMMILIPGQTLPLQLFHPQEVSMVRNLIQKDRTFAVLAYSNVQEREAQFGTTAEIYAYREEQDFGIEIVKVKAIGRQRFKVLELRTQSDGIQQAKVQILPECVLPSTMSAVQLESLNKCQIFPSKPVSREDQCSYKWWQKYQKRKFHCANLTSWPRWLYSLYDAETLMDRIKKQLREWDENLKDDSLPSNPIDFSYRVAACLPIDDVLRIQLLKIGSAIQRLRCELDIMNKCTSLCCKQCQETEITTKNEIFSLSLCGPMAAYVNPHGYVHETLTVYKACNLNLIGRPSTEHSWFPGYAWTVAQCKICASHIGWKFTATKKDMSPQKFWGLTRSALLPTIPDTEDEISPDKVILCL
T1 sequence (Q16531 whole entry partner): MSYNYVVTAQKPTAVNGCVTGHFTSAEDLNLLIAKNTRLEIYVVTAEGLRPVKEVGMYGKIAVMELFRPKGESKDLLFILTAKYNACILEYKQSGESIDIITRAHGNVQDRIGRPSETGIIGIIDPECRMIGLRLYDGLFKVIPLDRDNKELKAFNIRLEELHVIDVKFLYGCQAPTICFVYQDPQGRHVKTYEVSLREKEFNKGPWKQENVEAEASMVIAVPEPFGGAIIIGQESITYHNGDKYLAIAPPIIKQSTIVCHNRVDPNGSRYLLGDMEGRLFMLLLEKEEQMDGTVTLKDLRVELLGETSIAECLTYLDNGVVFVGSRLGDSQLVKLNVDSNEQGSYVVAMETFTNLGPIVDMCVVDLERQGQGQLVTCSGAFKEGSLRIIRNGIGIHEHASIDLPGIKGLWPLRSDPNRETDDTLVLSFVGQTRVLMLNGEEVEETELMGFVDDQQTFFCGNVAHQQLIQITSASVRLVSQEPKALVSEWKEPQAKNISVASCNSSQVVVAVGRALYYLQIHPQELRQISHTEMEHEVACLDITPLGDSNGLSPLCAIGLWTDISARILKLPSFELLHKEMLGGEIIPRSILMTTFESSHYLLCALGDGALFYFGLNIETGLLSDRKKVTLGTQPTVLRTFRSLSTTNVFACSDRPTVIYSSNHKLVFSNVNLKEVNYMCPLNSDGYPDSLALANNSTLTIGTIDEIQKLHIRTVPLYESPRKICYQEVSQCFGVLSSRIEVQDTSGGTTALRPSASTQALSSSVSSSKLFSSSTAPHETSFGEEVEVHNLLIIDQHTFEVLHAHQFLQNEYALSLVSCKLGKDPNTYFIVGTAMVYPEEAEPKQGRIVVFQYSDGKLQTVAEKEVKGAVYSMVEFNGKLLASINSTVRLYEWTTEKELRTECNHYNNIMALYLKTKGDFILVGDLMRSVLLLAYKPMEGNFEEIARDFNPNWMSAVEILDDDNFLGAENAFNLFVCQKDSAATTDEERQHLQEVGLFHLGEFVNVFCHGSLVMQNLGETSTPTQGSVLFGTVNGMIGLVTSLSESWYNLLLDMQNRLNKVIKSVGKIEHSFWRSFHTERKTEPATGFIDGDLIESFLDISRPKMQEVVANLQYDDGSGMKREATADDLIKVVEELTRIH
T3 sequence (Q9UKS7 whole entry): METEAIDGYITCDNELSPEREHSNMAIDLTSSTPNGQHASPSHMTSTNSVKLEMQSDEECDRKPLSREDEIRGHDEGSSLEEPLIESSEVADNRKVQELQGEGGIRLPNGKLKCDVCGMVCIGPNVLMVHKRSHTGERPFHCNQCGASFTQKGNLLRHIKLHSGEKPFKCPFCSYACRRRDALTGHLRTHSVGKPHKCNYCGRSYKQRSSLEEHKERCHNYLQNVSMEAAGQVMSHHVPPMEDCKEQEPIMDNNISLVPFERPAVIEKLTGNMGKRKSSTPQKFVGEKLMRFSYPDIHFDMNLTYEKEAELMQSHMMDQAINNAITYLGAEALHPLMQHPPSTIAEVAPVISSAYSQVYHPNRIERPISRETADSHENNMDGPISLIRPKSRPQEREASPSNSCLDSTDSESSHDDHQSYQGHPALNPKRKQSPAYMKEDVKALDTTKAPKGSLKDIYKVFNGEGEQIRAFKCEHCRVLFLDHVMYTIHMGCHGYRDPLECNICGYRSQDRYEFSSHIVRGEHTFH
T3 sequence (Q96SW2 whole entry): as the sequence (Q96SW2 whole entry) above
T3 sequence (Q16531 whole entry partner): as the sequence (Q16531 whole entry partner) above
T6 sequence (Q9UKT9 whole entry): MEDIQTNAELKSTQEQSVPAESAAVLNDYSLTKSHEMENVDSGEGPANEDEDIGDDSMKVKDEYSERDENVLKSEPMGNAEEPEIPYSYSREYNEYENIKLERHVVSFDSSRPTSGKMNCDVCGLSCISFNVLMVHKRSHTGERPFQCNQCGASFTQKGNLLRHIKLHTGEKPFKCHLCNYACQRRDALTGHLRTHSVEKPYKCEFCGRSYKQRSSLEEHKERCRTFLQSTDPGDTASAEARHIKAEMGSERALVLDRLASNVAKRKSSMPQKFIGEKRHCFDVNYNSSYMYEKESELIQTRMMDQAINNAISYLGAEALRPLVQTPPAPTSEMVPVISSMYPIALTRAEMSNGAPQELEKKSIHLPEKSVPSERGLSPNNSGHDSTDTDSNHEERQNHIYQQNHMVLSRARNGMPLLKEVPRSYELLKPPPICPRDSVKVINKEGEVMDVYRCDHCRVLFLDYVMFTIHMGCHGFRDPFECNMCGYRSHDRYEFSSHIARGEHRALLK
T6 sequence (Q96SW2 whole entry): as the sequence (Q96SW2 whole entry) above
T6 sequence (Q16531 whole entry partner): as the sequence (Q16531 whole entry partner) above
T5 sequence (Q13422 whole entry): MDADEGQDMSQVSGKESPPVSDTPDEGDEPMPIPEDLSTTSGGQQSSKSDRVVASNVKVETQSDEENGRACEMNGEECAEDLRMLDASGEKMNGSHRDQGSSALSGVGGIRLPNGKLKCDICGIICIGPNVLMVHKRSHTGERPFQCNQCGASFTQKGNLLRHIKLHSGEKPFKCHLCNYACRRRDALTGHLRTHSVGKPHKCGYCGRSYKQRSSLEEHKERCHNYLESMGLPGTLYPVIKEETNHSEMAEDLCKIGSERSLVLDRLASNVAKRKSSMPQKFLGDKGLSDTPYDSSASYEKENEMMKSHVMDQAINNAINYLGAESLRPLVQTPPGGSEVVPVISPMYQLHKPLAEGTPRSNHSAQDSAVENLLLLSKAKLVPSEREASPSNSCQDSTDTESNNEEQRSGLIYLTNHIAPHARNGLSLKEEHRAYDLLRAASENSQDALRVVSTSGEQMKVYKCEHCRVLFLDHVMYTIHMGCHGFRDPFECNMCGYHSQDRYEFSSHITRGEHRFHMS
T5 sequence (Q96SW2 whole entry): as the sequence (Q96SW2 whole entry) above
T5 sequence (Q16531 whole entry partner): as the sequence (Q16531 whole entry partner) above
T4 sequence (P15170 whole entry): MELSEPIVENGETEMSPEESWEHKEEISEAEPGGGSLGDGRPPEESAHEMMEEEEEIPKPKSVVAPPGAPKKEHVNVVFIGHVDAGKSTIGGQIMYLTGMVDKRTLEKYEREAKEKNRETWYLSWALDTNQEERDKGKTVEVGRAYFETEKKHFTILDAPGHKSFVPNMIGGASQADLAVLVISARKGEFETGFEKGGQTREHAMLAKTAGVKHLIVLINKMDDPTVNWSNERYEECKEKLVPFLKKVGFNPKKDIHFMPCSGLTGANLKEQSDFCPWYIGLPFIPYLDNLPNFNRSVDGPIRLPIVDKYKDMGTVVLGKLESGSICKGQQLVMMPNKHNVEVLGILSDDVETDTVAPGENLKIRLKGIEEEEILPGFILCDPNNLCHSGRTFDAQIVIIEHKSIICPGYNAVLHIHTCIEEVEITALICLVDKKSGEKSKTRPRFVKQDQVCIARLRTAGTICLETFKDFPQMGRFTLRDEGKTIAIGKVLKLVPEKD
T4 sequence (Q96SW2 whole entry): as the sequence (Q96SW2 whole entry) above
T4 sequence (Q16531 whole entry partner): as the sequence (Q16531 whole entry partner) above
T2 sequence (Q96SW2 whole entry): as the sequence (Q96SW2 whole entry) above

Compound	Weel substrate protein remaining % (WEE1; [2])	IC50 [1]	IKZF2 substrate protein remaining % (IKZF2; [2])	GSPT1 substrate protein remaining % (GSPT1; [2])	IKZF 1 substrate protein remaining % (IKZF1; [2])	IKZF3 substrate protein remaining % (IKZF3; [2])	CK1a substrate protein remaining % (CK1α; [2])	IC50 [1, 3]	Weel substrate protein remaining % (WEE1; [4])	IKZF2 substrate protein remaining % (IKZF2; [4])	GSPT1 substrate protein remaining % (GSPT1; [4])	IKZF 1 substrate protein remaining % (IKZF1; [4])	IKZF3 substrate protein remaining % (IKZF3; [4])	CK1a substrate protein remaining % (CK1α; [4])
O=C1CCC(N2Cc3cc(CN4CCC(N5C(=O)COc6cc(F)ccc65)CC4)ccc3C2=O)C(=O)N1 (stereo not drawn) [GT-04860, 3-(5-((4-(7-fluoro-3-oxo-2,3-dihydro-4H-benzo[b][1,4]oxazin-4-yl)piperidin-1-yl)methyl)-1-oxoisoindolin-2-yl)piperidine-2,6-dione]	B (80%< substrate protein remaining %≤ 100%)	< 500 nM	A (0% ≤ substrate protein remaining % ≤ 80%)	A (0% ≤ substrate protein remaining % ≤ 80%)	A (0% ≤ substrate protein remaining % ≤ 80%)	A (0% ≤ substrate protein remaining % ≤ 80%)	B (80%< substrate protein remaining %≤ 100%)	–	–	–	–	–	–	–
O=C1CCC(N2Cc3cc(CN4CCC(c5ccnc6cc(F)ccc56)CC4)ccc3C2=O)C(=O)N1 (stereo not drawn) [GT-04648, 3-(5-((4-(7-fluoroquinolin-4-yl)piperidin-1-yl)methyl)-1-oxoisoindolin-2-yl)piperidine-2,6-dione]	B (80%< substrate protein remaining %≤ 100%)	–	A (0% ≤ substrate protein remaining % ≤ 80%)	A (0% ≤ substrate protein remaining % ≤ 80%)	A (0% ≤ substrate protein remaining % ≤ 80%)	A (0% ≤ substrate protein remaining % ≤ 80%)	B (80%< substrate protein remaining %≤ 100%)	500 to 1000 nM	–	–	–	–	–	–
O=C1CCC(N2Cc3cc(CN4CCN(c5ncnc6scc(-c7ccccc7)c56)CC4)ccc3C2=O)C(=O)N1 (stereo not drawn) [GT-04709, 3-(1-oxo-5-((4-(5-phenylthieno[2,3-d]pyrimidin-4-yl)piperazin-1-yl)methyl)isoindolin-2-yl)piperidine-2,6-dione]	B (80%< substrate protein remaining %≤ 100%)	–	B (80%< substrate protein remaining %≤ 100%)	A (0% ≤ substrate protein remaining % ≤ 80%)	B (80%< substrate protein remaining %≤ 100%)	A (0% ≤ substrate protein remaining % ≤ 80%)	A (0% ≤ substrate protein remaining % ≤ 80%)	< 500 nM	–	–	–	–	–	–
O=C1CCC(N2C(=O)c3ccc(CN4CCN(c5ncnc6sc7c(c56)CCCC7)CC4)cc3C2=O)C(=O)N1 (stereo not drawn) [GT-06564, 2-(2,6-dioxopiperidin-3-yl)-5-((4-(5,6,7,8-tetrahydrobenzo[4,5]thieno[2,3-d]pyrimidin-4-yl)piperazin-1-yl)methyl)isoindoline-1,3-dione]	–	–	–	–	–	–	–	500 to 1000 nM	A (0% ≤ substrate protein remaining % ≤ 80%)	A (0% ≤ substrate protein remaining % ≤ 80%)	A (0% ≤ substrate protein remaining % ≤ 80%)	A (0% ≤ substrate protein remaining % ≤ 80%)	A (0% ≤ substrate protein remaining % ≤ 80%)	A (0% ≤ substrate protein remaining % ≤ 80%)
O=C1CCC(N2Cc3cc(CN4CCN(c5ccnc(Cl)c5Cl)CC4)ccc3C2=O)C(=O)N1 (stereo not drawn) [GT-04542, 3-(5-((4-(2,3-dichloropyridin-4-yl)piperazin-1-yl)methyl)-1-oxoisoindolin-2-yl)piperidine-2,6-dione]	A (0% ≤ substrate protein remaining % ≤ 80%)	–	A (0% ≤ substrate protein remaining % ≤ 80%)	A (0% ≤ substrate protein remaining % ≤ 80%)	A (0% ≤ substrate protein remaining % ≤ 80%)	A (0% ≤ substrate protein remaining % ≤ 80%)	B (80%< substrate protein remaining %≤ 100%)	< 500 nM	–	–	–	–	–	–
O=C1CCC(N2Cc3cc(CN4CCN(c5ncc6ccsc6n5)CC4)ccc3C2=O)C(=O)N1 (stereo not drawn) [GT-04725, 3-(1-oxo-5-((4-(thieno[2,3-d]pyrimidin-2-yl)piperazin-1-yl)methyl)isoindolin-2-yl)piperidine-2,6-dione]	B (80%< substrate protein remaining %≤ 100%)	–	B (80%< substrate protein remaining %≤ 100%)	A (0% ≤ substrate protein remaining % ≤ 80%)	B (80%< substrate protein remaining %≤ 100%)	B (80%< substrate protein remaining %≤ 100%)	B (80%< substrate protein remaining %≤ 100%)	< 500 nM	–	–	–	–	–	–
O=C1CCC(N2Cc3cc(CN4CCC(c5cccc6cnccc56)CC4)ccc3C2=O)C(=O)N1 (stereo not drawn) [GT-04665, 3-(5-((4-(isoquinolin-5-yl)piperidin-1-yl)methyl)-1-oxoisoindolin-2-yl)piperidine-2,6-dione]	A (0% ≤ substrate protein remaining % ≤ 80%)	–	A (0% ≤ substrate protein remaining % ≤ 80%)	A (0% ≤ substrate protein remaining % ≤ 80%)	A (0% ≤ substrate protein remaining % ≤ 80%)	A (0% ≤ substrate protein remaining % ≤ 80%)	A (0% ≤ substrate protein remaining % ≤ 80%)	< 500 nM	–	–	–	–	–	–
O=C1CCC(N2Cc3cc(CN4CC5CCC(C4)N5c4cccc(Cl)c4Cl)ccc3C2=O)C(=O)N1 (stereo not drawn) [GT-04899, 3-(5-((8-(2,3-dichlorophenyl)-3,8-diazabicyclo[3.2.1]octan-3-yl)methyl)-1-oxoisoindolin-2-yl)piperidine-2,6-dione]	B (80%< substrate protein remaining %≤ 100%)	–	B (80%< substrate protein remaining %≤ 100%)	B (80%< substrate protein remaining %≤ 100%)	A (0% ≤ substrate protein remaining % ≤ 80%)	B (80%< substrate protein remaining %≤ 100%)	B (80%< substrate protein remaining %≤ 100%)	500 to 1000 nM	–	–	–	–	–	–
Cc1csc2ncnc(N3CCN(Cc4ccc5c(c4)CN(C4CCC(=O)NC4=O)C5=O)CC3)c12 (stereo not drawn) [GT-04679, 3-(5-((4-(5-methylthieno[2,3-d]pyrimidin-4-yl)piperazin-1-yl)methyl)-1-oxoisoindolin-2-yl)piperidine-2,6-dione]	B (80%< substrate protein remaining %≤ 100%)	–	B (80%< substrate protein remaining %≤ 100%)	A (0% ≤ substrate protein remaining % ≤ 80%)	B (80%< substrate protein remaining %≤ 100%)	B (80%< substrate protein remaining %≤ 100%)	A (0% ≤ substrate protein remaining % ≤ 80%)	500 to 1000 nM	–	–	–	–	–	–
O=C1CCC(N2Cc3cc(CN4CCC(c5ncnc6scc(-c7ccccc7)c56)CC4)ccc3C2=O)C(=O)N1 (stereo not drawn) [GT-04995, 3-(1-oxo-5-((4-(5-phenylthieno[2,3-d]pyrimidin-4-yl)piperidin-1-yl)methyl)isoindolin-2-yl)piperidine-2,6-dione]	A (0% ≤ substrate protein remaining % ≤ 80%)	–	A (0% ≤ substrate protein remaining % ≤ 80%)	B (80%< substrate protein remaining %≤ 100%)	A (0% ≤ substrate protein remaining % ≤ 80%)	A (0% ≤ substrate protein remaining % ≤ 80%)	B (80%< substrate protein remaining %≤ 100%)	< 500 nM	–	–	–	–	–	–
O=C1CCC(N2Cc3cc(CN4CCC(=C5CCOc6cc(F)ccc65)CC4)ccc3C2=O)C(=O)N1 (stereo not drawn) [GT-04649, 3-(5-((4-(7-fluorochroman-4-ylidene)piperidin-1-yl)methyl)-1-oxoisoindolin-2-yl)piperidine-2,6-dione]	B (80%< substrate protein remaining %≤ 100%)	–	A (0% ≤ substrate protein remaining % ≤ 80%)	A (0% ≤ substrate protein remaining % ≤ 80%)	A (0% ≤ substrate protein remaining % ≤ 80%)	A (0% ≤ substrate protein remaining % ≤ 80%)	B (80%< substrate protein remaining %≤ 100%)	< 500 nM	–	–	–	–	–	–
Cc1cc(N2CCN(Cc3ccc4c(c3)CN(C3CCC(=O)NC3=O)C4=O)CC2)ccn1 (stereo not drawn) [GT-04541, 3-(5-((4-(2-methylpyridin-4-yl)piperazin-1-yl)methyl)-1-oxoisoindolin-2-yl)piperidine-2,6-dione]	A (0% ≤ substrate protein remaining % ≤ 80%)	–	A (0% ≤ substrate protein remaining % ≤ 80%)	B (80%< substrate protein remaining %≤ 100%)	A (0% ≤ substrate protein remaining % ≤ 80%)	A (0% ≤ substrate protein remaining % ≤ 80%)	B (80%< substrate protein remaining %≤ 100%)	500 to 1000 nM	–	–	–	–	–	–
